Activity calls are given as the source filed them.
What was measured:
[1] = blockers of CRF-binding protein–CRF-R2 complex – cell-based, uHTS hits, 384-well, dose response (AID 651639); assay type: functional, Homo sapiens; details: read-out: IC50_Mean
[2] = biological target: T1, Corticotropin-releasing factor receptor 2/Corticotropin-releasing factor-binding protein (Homo sapiens, UniProt P24387+Q13324); assay: activators of CRF receptor 2 with binding protein – uHTS hits, confirmation (AID 602473); assay type: functional; details: read-out: EC50_Mean
T1 sequence (Q13324 whole entry): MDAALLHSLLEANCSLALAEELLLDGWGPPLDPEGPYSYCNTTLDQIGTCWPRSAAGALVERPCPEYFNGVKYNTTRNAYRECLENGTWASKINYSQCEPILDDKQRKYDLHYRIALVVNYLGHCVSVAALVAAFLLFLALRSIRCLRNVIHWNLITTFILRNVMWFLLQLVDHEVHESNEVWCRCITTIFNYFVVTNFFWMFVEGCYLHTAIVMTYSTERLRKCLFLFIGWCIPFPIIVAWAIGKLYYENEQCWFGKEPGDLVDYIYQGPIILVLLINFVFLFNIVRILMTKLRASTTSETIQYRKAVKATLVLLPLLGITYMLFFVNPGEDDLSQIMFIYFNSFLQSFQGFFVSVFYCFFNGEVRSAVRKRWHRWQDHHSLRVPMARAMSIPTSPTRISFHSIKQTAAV
T1 sequence (P24387 whole entry): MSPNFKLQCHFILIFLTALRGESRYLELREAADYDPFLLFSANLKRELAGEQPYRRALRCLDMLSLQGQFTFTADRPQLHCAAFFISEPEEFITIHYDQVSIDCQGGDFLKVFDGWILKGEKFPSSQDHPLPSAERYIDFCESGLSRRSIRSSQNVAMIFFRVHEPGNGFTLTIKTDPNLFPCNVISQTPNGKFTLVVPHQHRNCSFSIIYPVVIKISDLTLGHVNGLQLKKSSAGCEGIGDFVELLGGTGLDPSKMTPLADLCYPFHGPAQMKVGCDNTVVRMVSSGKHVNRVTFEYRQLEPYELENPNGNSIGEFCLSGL

[3] = biological target: T1, Corticotropin-releasing factor receptor 2/Corticotropin-releasing factor-binding protein; assay: Dose Response confirmation of uHTS hits for small molecule antagonists of the CRF-binding protein and CRF-R2 receptor complex.; assay type: functional; details: read-out: IC50_Mean
BJ [4] = assay: BJ-TERT-LT-ST fibroblast viability loss – cell-based, RAS-independent, luminescence, dose response (AID 1935); assay type: functional; details: Homo sapiens;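 further: BJ fibroblasts immortalized with TERT plus LT and ST oncogenes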
BJ [5] = assay: cells; assay type: functional, cell-based; details: Homo sapiens
BJ [6] = assay: BJ-TERT fibroblast viability loss – cell-based, RAS-independent, luminescence, dose response (AID 1933); assay type: functional; details: Homo sapiens
[7] = DRD fibroblast viability loss – cell-based, non-viral oncogenic, luminescence, dose response (AID 1934); assay type: functional; details: Homo sapiens
[8] = HEK-293T viability loss after treatment – luminescence, T-cell screen hits, cytotoxicity control for TCR NF-kB inhibitor project, dose response (AID 489026); assay type: functional, cell-based;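 further: cells exposed to compound about 14 hours before the viability readout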
[9] = P. falciparum Dd2 growth inhibitors, dose response, SYBR Green, cherry-picked samples (AID 1159567); assay type: functional, cell-based
[10] = biological target: T2, Carboxy-terminal domain RNA polymerase II polypeptide A small phosphatase 1 (Homo sapiens, UniProt Q9GZU7); assay: CTDSP1 inhibitors, concentration-response, biochemical, absorbance readout, ultra-high-throughput screen actives (AID 540297); assay type: functional
T2 sequence (Q9GZU7 whole entry): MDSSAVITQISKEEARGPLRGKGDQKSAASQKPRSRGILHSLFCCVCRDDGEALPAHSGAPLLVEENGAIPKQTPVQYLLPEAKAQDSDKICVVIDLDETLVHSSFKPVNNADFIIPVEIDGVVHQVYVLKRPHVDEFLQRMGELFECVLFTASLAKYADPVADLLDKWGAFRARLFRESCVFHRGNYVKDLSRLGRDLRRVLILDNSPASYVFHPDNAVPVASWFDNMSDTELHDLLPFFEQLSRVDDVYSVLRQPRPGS

[11] = biological target: T3, Short transient receptor potential channel 4 (Mus musculus, UniProt Q9QUQ5); assay: calcium entry via TRPC4 opening agents – cell-based, HEK293 TRPC4/mu-opioid, Fluo-4 calcium, dose response (AID 434937); assay type: functional
T3 sequence (Q9QUQ5 whole entry): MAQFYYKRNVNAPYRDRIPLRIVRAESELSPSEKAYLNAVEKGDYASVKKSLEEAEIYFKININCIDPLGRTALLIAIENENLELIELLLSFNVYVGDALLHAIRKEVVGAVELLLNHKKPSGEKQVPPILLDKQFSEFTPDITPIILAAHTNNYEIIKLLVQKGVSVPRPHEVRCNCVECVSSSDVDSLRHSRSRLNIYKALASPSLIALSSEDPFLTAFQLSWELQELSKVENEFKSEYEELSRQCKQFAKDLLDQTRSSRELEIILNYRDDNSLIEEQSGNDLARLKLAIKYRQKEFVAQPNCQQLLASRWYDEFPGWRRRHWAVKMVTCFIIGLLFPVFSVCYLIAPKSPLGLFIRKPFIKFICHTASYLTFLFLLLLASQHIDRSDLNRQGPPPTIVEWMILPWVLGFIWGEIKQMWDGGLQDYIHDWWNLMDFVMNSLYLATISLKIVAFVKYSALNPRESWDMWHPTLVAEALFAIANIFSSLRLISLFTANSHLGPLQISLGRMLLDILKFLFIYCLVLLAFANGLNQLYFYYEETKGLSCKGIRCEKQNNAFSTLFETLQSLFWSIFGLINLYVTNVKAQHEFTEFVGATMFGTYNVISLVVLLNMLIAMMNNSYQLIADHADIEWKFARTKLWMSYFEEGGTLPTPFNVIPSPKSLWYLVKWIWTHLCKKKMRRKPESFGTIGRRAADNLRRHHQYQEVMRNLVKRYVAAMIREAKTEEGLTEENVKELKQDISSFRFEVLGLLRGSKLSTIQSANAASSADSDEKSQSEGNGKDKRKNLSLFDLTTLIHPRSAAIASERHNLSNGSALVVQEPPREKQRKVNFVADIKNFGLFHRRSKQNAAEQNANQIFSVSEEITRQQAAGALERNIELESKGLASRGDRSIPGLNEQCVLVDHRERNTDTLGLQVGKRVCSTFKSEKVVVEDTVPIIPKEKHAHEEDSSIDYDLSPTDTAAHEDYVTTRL

Cytochrome P450 2C9 = Cytochrome P450 2C9 (Homo sapiens, UniProt P11712)
[12] = reduction of Shn3 3'UTR-driven luciferase in osteoblasts – cell-based, Clone20 osteoblasts, firefly luciferase, cherry-picked, dose response (AID 624132); assay type: functional;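 further: firefly luciferase luminescence from reporter carrying the Shn3 3'UTR in osteoblasts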
[13] = non-specific 3'UTR reporter inhibition in Clone20-Shn3RL – cell-based, Renilla luciferase, cherry-picked, counter-screen for Shn3 inhibitor project, dose response (AID 624133); assay type: functional

Chain of Cytochrome P450 2C9 (P11712 whole entry): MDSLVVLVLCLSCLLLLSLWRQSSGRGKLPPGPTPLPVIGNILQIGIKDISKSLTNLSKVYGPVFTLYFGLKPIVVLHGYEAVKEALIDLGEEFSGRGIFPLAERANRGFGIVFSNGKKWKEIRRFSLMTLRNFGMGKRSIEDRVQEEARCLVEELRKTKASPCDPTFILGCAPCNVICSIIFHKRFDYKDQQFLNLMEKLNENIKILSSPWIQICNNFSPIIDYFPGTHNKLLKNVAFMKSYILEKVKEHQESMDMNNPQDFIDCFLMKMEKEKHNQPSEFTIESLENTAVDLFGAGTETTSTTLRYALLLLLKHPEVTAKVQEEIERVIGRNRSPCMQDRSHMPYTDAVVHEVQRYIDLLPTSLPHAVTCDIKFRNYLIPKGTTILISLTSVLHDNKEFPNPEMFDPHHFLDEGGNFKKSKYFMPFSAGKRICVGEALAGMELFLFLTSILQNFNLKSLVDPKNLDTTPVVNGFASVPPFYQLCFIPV

In the case of O=[N+]([O-])c1ccc2nc(S)sc2c1, the IC50 [1] is reported as > 20 µM (inactive), the EC50 [2] is reported as 27.1 µM (active) and the IC50 [3] is reported as 7.04 µM (active).
In the case of O=C(c1ccccc1-c1ccccc1)N1CCN(c2ccccn2)CC1, the EC50 (BJ [4]) is reported as 13.9 µM (inconclusive), the EC50 (BJ [5]) is reported as 19.9 µM (active) and the EC50 (BJ [6]) is reported as 9.85 µM (active). The EC50 [7] was 11.4 µM (active) and the IC50 [8] was > 80 µM (inactive).
For CC(CCc1ccco1)NC(=O)c1cccc2c1C(=O)N(C1CCCCC1)C2 (stereo not drawn), the IC50 [1] was > 20 µM (inactive), the EC50 [2] was > 53 µM (inactive) and the IC50 [3] was < 0.368 µM (active).
With CCC(=O)N1CCC2(CC1)CN(Cc1cc(F)ccc1F)[C@@H](CO)c1[nH]c3cc(OC)ccc3c12 the AC50 [9] was 4.19 µM (active).
With COc1ccc2c3c1OC1C(O)C=CC4C(C2)[N+](C)(C)CCC341 (stereo not drawn) the IC50 [10] was 7 µM (active).
In the case of Fc1ccc(-n2cc(CNCCc3cccnc3)c(-c3ccccc3Cl)n2)cc1, the EC50 [11] is reported as 5.96 µM (active).
In the case of COCCCN(C(=O)c1cc(-c2ccco2)nc2ccccc12)c1c(N)n(Cc2ccccc2)c(=O)[nH]c1=O, the IC50 [10] is reported as 12 µM (active).
With Clc1cnc(Oc2ccc(Oc3ncc(Cl)cc3Cl)cc2)c(Cl)c1 the IC50 [1] was 18 µM (active), the AC50 (Cytochrome P450 2C9) was “inconclusive” and the EC50 [2] was > 53 µM (inactive). For the same molecule, the IC50 [3] was < 0.368 µM (active).
In the case of CCOC(=O)C1(Cc2cccc(F)c2)CCN(Cc2cnn(CC)c2C)CC1, the EC50 [11] is reported as 0.211 µM (active).
With Cc1ccc(C)c(OCCn2ccnc2)c1 the IC50 [10] was 5.06 µM (active).
With Cc1nc2ccccc2n1CC(O)COC1CCCCC1 (stereo not drawn) the IC50 [1] was 8.02 µM (active), the EC50 [2] was > 53 µM (inactive) and the IC50 [3] was 41.8 µM (active).
With CC[C@]12c3[nH]c4cc(CCC(=O)N(C)C)ccc4c3CCN1C(=O)[C@@H](CC(=O)NC/C=C(\C)CCC=C(C)C)C[C@@H]2C(=O)N1CCN(C(=O)c2ccco2)CC1 the AC50 [12] was 1.68 µM (active) and the AC50 [13] was 1.72 µM (active).
In the case of C[C@H](CO)N1C[C@H](C)[C@H](CN(C)C(=O)Nc2ccc(-c3ccccc3)cc2)OCc2ccccc2-c2c(n(C)c3ccccc23)C1=O, the AC50 [9] is reported as 4.77 µM (active).
For CN1c2ccc(C#Cc3cccnc3)cc2[C@@H]2[C@@H](CCN2S(=O)(=O)c2ccccc2F)[C@@H]1CO, the AC50 [9] was 3.87 µM (active).

Reference: ChEMBL document CHEMBL1201862, “PubChem BioAssay data set” (2004)
